Assays:
[1] = test system: patients with sickle-cell anemia; conditions: Perrine et al., 1993; cited from earlier work
nonsense mutations = conditions: reported, Keeling and Bedwell, 2002; cited from earlier work
[2] = test system: stop codon inserted into the reading frame of firefly luciferase; test: stop codon read-through, dual luciferase assay in transfected 293T cells; format: cell-based, human; conditions: relative to untreated transfected cells, 24 hour incubation
Protocol: Plasmid construction. The wild type human fibroblast cell line GM02037 (Coriell Cell Repositories, NJ) was used as the DNA template for atm promoter amplification. In brief, the Qiagen Blood & Cell Culture DNA Mini kit was used to purify genomic DNA. ATM gene promoter primers, which were used to amplify the desired fragment DNA, were designed based on the sequence in Genebank. The forward primer sequence employed was […] (SEQ ID NO:1) and the reverse primer was […] (SEQ ID NO:2). PCR was carried out using the Roche Expand High Fidelity PCR system. The amplified atm promoter region was then cloned into the TOPO2.1 PCR vector (Invitrogen) for sequencing verification and subsequently subcloned into the promoterless plasmid PA3Luc. Firefly luciferase cDNA was mutated (QuikChange Site-Directed Mutagenesis Kit) in the desired region to furnish the three stop codons, as shown as FIG. 1(C). The CMV driven Renilla luciferase plasmid was purchased from Promega as the internal control for the dual luciferase assay.
Transfections were performed using GeneJammer reagent (Stratagene) based on the protocol from the manufacturer. In brief, approximately […] HEK293T cells were seeded into white 96 well plates (Corning) and grown for less than 24 hours. Cells were transfected with 0.6 μL of GeneJammer and 0.1 μg plasmids. In the dual luciferase assay, the plasmid ratio of ATM promoter-driven firefly luciferase to CMV promoter-driven Renilla luciferase was 30:1. In the dual luciferase experiments that utilized the stop codon-containing firefly luciferase genes, the ratio was 40:1. On the second day after transfection, the medium in each well was changed, and the promoter and/or nonsense-suppressing agents added to the wells for a 24 hour incubation period. The cells were subsequently lysed and promoter activity/nonsense suppression efficiency then assessed via the dual luciferase assay.
Dual luciferase assay. The dual luciferase kit was purchased from Promega and the protocol employed was conducted according to the directions supplied by the manufacturer. In brief, cells were washed with PBS and lysates were prepared using passive lysis buffer. Luminescence was determined with a Molecular Devices Lmax 96 well plate luminometer. Light emission was measured after each of the 100 μL luminescence substrates and/or stop solutions were injected. ATM promoter activity was calculated by the ratio of relative light units of flash (firefly) to glow (renilla) luminescence in each well, which was compared with control wells (cultured only in medium with plasmid but no drug treatment) in each plate. In the case of the stop codon suppression studies, controls also included cells containing the plasmids without the inserted stop codon, which were treated with nonsense suppressing and/or promoter activating agents. All individual treatments in a given experiment were performed in triplicate and all experiments repeated 3-10 times.
An evaluation was made of the ability of aminoglycosides, in combination with promoter activating agents, to augment read-through of a stop codon inserted into the reading frame of firefly luciferase (FIG. 1C).

atm message = test: atm mRNA quantitation by real time PCR (RT-PCR) after drug treatment; format: cell-based, human; conditions: for Fold-increase (atm message levels): relative to untreated cell line
Protocol: Cell culture and transfection. Human Kidney HEK293T cell was a gift from Professor Philipp Scherer in the Department of Cell Biology at the Albert Einstein College of Medicine. All other cell lines were purchased from Coriell Cell Repositories, NJ. HEK293T cells were maintained in Dulbecco's Modified Eagle Medium with 1 g/L D-glucose and 10% fetal bovine serum. The Human AT fibroblast cell line GM05823 was cultured in MEM medium with 1 g/L D-glucose and 15% fetal bovine serum. The Human lympoblastoid cell lines GM 13810 and GM13860 were cultured in RPMI 1640 medium with 10% heat inactivated fetal bovine serum and 1 g/L of D-glucose. All cell lines were incubated at 37° C. in a humidified 5% CO2 atmosphere.
mRNA Quantitation. Single-stranded cDNAs were synthesized by reverse transcription, using a First Strand cDNA Synthesis kit (Invitrogen), and then used as a template in polymerase chain reactions. ATM mRNA was primarily quantified using real time polymerase chain reaction (PCR). In brief, cells were treated with the desired drugs or combinations thereof under conditions identical to those described above for the dual luciferase assay. Cells were lysed and RNA extracted with the TRIzol reagent (Invitrogen). Approximately 1 μg of total RNA in each sample was subjected to CDNA synthesis using the First Strand cDNA Synthesis kit (Invitrogen). In the real time PCR reaction, the FAM labeled MGB probe, CCAGCTATTTGGTTTGAG (SEQ ID NO:3), was designed by the Primer Express software from Applied Biosystems (AB) and synthesized by AB. The human β-actin MGB probes, VIC or FAM fluorescently labeled, were purchased from AB. All other reaction reagents were purchased from AB. PCR reactions were performed using the ABI PRISM 7000 Sequence Detection System in triplicate. Some samples were also tested on the ABI 7700 Sequence Detection System for verification and essentially identical results were obtained with both real time PCR instruments. All collected data were compared with a […] control. In addition to real time PCR, the branched chain DNA (bDNA) RNA quantitation method was employed as well. Briefly, the QuantiGene kit as well as the customer designed atm probe sets were purchased from Genospectra. The latter probes target the same region on the atm message RNA region as the real time PCR probes. The cells were treated as described above for the dual luciferase assay. Cell lysates were transferred into a capture plate and atm mRNA allowed to hybridize with the probe set at 53° C. overnight. After 16-20 hours, the signal was amplified and subsequently read using a Molecular Devices Lmax luminometer. The internal human β-actin probe sets were purchased from Genospectra. All experiments were performed in triplicate.
The effect of ofloxacin on native atm message levels was subsequently examined in 293T cells as well as in lymphoblastoid and primary fibroblast cell lines derived from A-T patients (Table 1). Message levels are enhanced 2.4±0.1 fold in 293T cells treated with ofloxicin for 24 hours. By contrast, an up to nearly 6-fold increase is observed in ATM-deficient (A-T) cell lines. The latter results offer the intriguing possibility that atm message levels are elevated more dramatically in an ATM-deficient environment.

[3] = test system: animal models of cystic fibrosis and Duchenne muscular dystrophy; conditions: reported; cited from earlier work
atm promoter = test: cell-based screen for atm promoter enhancing agents (atm/pA3LUC dual luciferase, 293T cells); parameters: species or system human; conditions: transiently transfected 293T cells; firefly/renilla luciferase
Text: Plasmid construction. The wild type human fibroblast cell line GM02037 (Coriell Cell Repositories, NJ) was used as the DNA template for atm promoter amplification. In brief, the Qiagen Blood & Cell Culture DNA Mini kit was used to purify genomic DNA. ATM gene promoter primers, which were used to amplify the desired fragment DNA, were designed based on the sequence in Genebank. The forward primer sequence employed was […] (SEQ ID NO:1) and the reverse primer was GCCACGGGAGGAGGCGAG (SEQ ID NO:2). PCR was carried out using the Roche Expand High Fidelity PCR system. […]
Transfections were performed using GeneJammer reagent (Stratagene) based on the protocol from the manufacturer. […] The cells were subsequently lysed and promoter activity/nonsense suppression efficiency then assessed via the dual luciferase assay.
Dual luciferase assay. […] Luminescence was determined with a Molecular Devices Lmax 96 well plate luminometer. Light emission was measured after each of the 100 μL luminescence substrates and/or stop solutions were injected. ATM promoter activity was calculated by the ratio of relative light units of flash (firefly) to glow (renilla) luminescence in each well, which was compared with control wells (cultured only in medium with plasmid but no drug treatment) in each plate. […]

Compound: CCCC(=O)[O-].[Na+] [Sodium butyrate, sodium butyrate]
- toxicity in patients [1]: minimal toxicity

Compound: NCC[C@H](O)C(=O)N[C@@H]1C[C@H](N)[C@@H](O[C@H]2O[C@H](CN)[C@@H](O)[C@H](O)[C@H]2O)[C@H](O)[C@H]1O[C@H]1O[C@H](CO)[C@@H](O)[C@H](N)[C@H]1O [amikacin]
- effectiveness at suppressing nonsense mutations compared with tobramycin (nonsense mutations): more effective

Compound: gentamicin
- Fold-increase (read-through) ([2]; amber (UAG) stop codon): 8.2 ± 1.8 fold
- Fold-increase (read-through) ([2]; ochre (UAA) stop codon): 6.7 ± 1.5 fold
- Fold-increase (read-through) ([2]; opal (UGA) stop codon): 8.7 ± 1.2 fold
- effectiveness at suppressing nonsense mutations compared with tobramycin (nonsense mutations): more effective

Compound: CC1COc2c(N3CCN(C)CC3)c(F)cc3c(=O)c(C(=O)O)cn1c23 (stereo not shown) [Ofloxacin, ofloxacin]
- Message levels enhanced (atm) (atm message; 293T cells, treated for 24 hours): 2.4±0.1 fold
- increase in atm message levels (atm message; ATM-deficient (A-T) cell lines, summary of Table 1): ≤ 6 fold
- Fold-increase (atm message levels) (atm message; GM05823 (A-T) fibroblast cell line, 2 hours after ofloxacin): 2.2 ± 0.1 fold
- Fold-increase (atm message levels) (atm message; GM05823 (A-T) fibroblast cell line, 6 hours after ofloxacin): 3.0 ± 0.2 fold
- Fold-increase (atm message levels) (atm message; GM05823 (A-T) fibroblast cell line, 24 hours after ofloxacin): 5.8 ± 0.4 fold
- Fold-increase (atm message levels) (atm message; GM13810 (A-T) lymphoblastoid cell line, 2 hours after ofloxacin): 1.2 ± 0.2 fold
- Fold-increase (atm message levels) (atm message; GM13810 (A-T) lymphoblastoid cell line, 6 hours after ofloxacin): 2.3 ± 0.3 fold
- Fold-increase (atm message levels) (atm message; GM13810 (A-T) lymphoblastoid cell line, 24 hours after ofloxacin): 5.4 ± 0.7 fold
- Fold-increase (atm message levels) (atm message; GM13860 (A-T) lymphoblastoid cell line, 2 hours after ofloxacin): 3.8 ± 0.9 fold
- Fold-increase (atm message levels) (atm message; GM13860 (A-T) lymphoblastoid cell line, 6 hours after ofloxacin): 2.3 ± 0.3 fold
- Fold-increase (atm message levels) (atm message; GM13860 (A-T) lymphoblastoid cell line, 24 hours after ofloxacin): 3.3 ± 0.3 fold

Compound: O=C(O)c1cccc(-c2noc(-c3ccccc3F)n2)c1 [PTC124]
- efficacy in animal models [3]: effective

Compound: Nc1nc2nc[nH]c2c(=S)[nH]1 [Thioguanine, thioguanine]
- activation of the atm promoter (atm promoter): induce atm promoter activity

Compound: CN[C@@H]1[C@@H](O)[C@@H](O[C@@H]2[C@@H](O)[C@H](O[C@H]3O[C@H]([C@@H](C)O)[C@@H](O)[C@H](O)[C@H]3N)[C@@H](N)C[C@H]2N)OC[C@]1(C)O [Geneticin, geneticin]
- Fold-increase (read-through) ([2]; amber (UAG) stop codon): 14.9 ± 1.9 fold
- Fold-increase (read-through) ([2]; ochre (UAA) stop codon): 7.9 ± 3.0 fold
- Fold-increase (read-through) ([2]; opal (UGA) stop codon): 6.5 ± 0.8 fold

— patent publication US20080207538A1, “Enhanced Production of Functional Proteins From Defective Genes” (priority 2004, published 2008)
